According to paper PMC8783508, “A novel D-amino acid peptide with therapeutic potential (ISAD1) inhibits aggregation of neurotoxic disease-relevant mutant Tau and prevents Tau toxicity in vitro” (Alzheimer's Research & Therapy, 2022):
Non-standard residues stand in square brackets, D forms with d. Residues, ends and D or L forms follow the SMILES beside them.

Legend:
Tau = conditions: PHF6 addressing peptide; read-out: Inhibition of fibrillization of Tau (compared with the IC50 of ISAD1); cited from earlier work
Description: Aggregation of Tau is the primary hallmark for the disease pathology in AD and other tauopathies. A significant inhibition of the aggregation by therapeutic molecules is considered beneficial. Our novel peptide ISAD1 inhibited the fibrillization of Tau^FL and pro-aggregant Tau^RDΔK (IC50 of ~3 μM) in concentrations which are typical for peptide inhibitors.

[1] = system: N2a cells expressing Tau^RDΔK; assay: Uptake of FAM-labeled D-peptides by confocal microscopy; assay type: cell-based; conditions: 25 μM FAM-labeled peptide, 24 h, fixed cells
Description: In order to become potentially suitable for therapeutic development, the D-peptides should be internalized by neurons. To test this, 25 μM FAM-labeled ISAD1 or its inversed form was added to cells that express pro-aggregant mutant Tau^RDΔK for 24 h followed by cell fixation.
Fig. 7 Uptake of fluorescence-labeled D-peptides analyzed by confocal microscopy. 25 μM FAM-labeled peptides (ISAD1 and ISArev) were incubated with N2a cells expressing Tau^RDΔK for 24 h. The uptake of D-peptides was analyzed by confocal microscopy. As shown in the representative images, the peptides are mainly localized in the cytoplasm (A1, B1 Draq5 shown as red; A2 ISAD1-FAM, B2 ISAD1rev-FAM; A3, B3 merged images)

N2a-Tau^RDΔK cells [2] = assay: LDH release with the peptides alone; assay type: cell-based; conditions: 25, 50, 100, 250 μM peptide, 24 h, n = 3
Description: N2a cells expressing Tau^RDΔK were plated on poly D-lysine-coated 96-well plates with a density of 25,000 cells/well. At 70 to 80% confluence, the cells were treated for 24 h with various concentrations of D-peptides (25, 50, 100, and 250 μM) or Tau^RDΔK (10 μM final concentration) in the presence of ISAD1 and ISAD1rev (100 μM final concentration). The ability of D-peptides to neutralize the toxicity of Tau^RDΔK oligomers/fibrils was investigated by measuring the amount of released LDH (Roche Diagnostics, Mannheim, Germany). Therefore, 50 μL of each well was transferred to a fresh 96-well plate and 50 μL of reagent was added followed by a 30-min incubation period at RT. Finally, 50 μL of stop solution (1 N HCl) was added and absorbance was recorded at 492 nm (TECAN spectrofluorometer, Männedorf, Switzerland). Absorbance values were corrected by background values and the percentage of LDH release was calculated.

N2a-Tau^RDΔK cells [3] = assay: MTT cytotoxicity of the peptides alone; assay type: cell-based; conditions: 25, 50, 100, 250 μM peptide, 24 h, n = 3
Description: Cell viability was analyzed in accordance with the manufacturer’s protocol (Roche Diagnostics, Mannheim, Germany; cell proliferation kit II (MTT)). This assay is based on the cleavage of the yellow tetrazolium salt MTT into purple formazan dye by metabolic active cells. The color changes only in viable cells and can be directly quantified using a scanning multiwell spectrophotometer. In all experiments, the cells were grown as described previously. The cells (25,000 cells/well or 80% confluence) were plated on poly D-lysine-coated 96-well plates (Greiner Bio-One GmbH, Frickenhausen, Germany) for stronger attachment from overnight to 24 h at 37 °C. Fibrillized Tau^RDΔK was generated by incubating 200 μM Tau^RDΔK in BES buffer at 37 °C for 24 h in the presence of 2 mM D-peptides (Tau^RDΔK:peptide = 1:10). Successful fibrillization was verified using ThS (5 μM Tau^RDΔK, 10 μM ThS) measurement. The aggregated Tau^RDΔK (10 μM final concentration), Tau^RDΔK (10 μM) + peptide (100 μM) samples (ISAD1 and ISAD1rev), buffer only (negative control, set to 100% cell viability), and TritonX-100 (2%, cytotoxic agent, positive control) were incubated on N2a-Tau^RDΔK cells (100 μl solution) for another 24 h. The cell viability was measured in accordance with the manufacturer’s protocol.
A MTT-based cytotoxicity assay in the presence of ISAD1 and ISAD1rev peptides. […]

Tau^FL [4] = target: T1, Tau^FL (Homo sapiens, UniProt P10636); assay: ELISA of FAM-labeled peptide binding to Tau^FL; conditions: FAM-labelled peptide 0.1 – 200 µM, Tau^FL 5 µg/ml, n = 3
T1 construct: Tau^FL Full-length human Tau (441 AA); made in house
Description: A 96-well microtiter plate (Greiner Bio-One GmbH, Frickenhausen, Germany) was coated with 5 μg/ml Tau^FL or fibrils in coating buffer for incubation overnight at 4 °C. For investigation of the binding properties to the hexapeptide, 5 μM PHF6 was coated overnight. After three times washing with 300 μl phosphate-buffered saline with Tween20 (PBST: PBS with 0.1 % [v/v] Tween20), the plate was blocked with 3 % [w/v] BSA in PBS for 1 h at RT, followed by further washing steps. […] The plate was washed three times with PBST before 100 μl sheep anti-fluorescein isothiocyanate (FITC) HRP-conjugate (1:5000 dilution in PBST; AbD Serotec, Puchheim, Germany) was added and incubated for 1 h at RT with gentle agitation. Again, the plate was washed for three times, followed by addition of the TMB substrate. The reaction was stopped with 20 % [v/v] H2SO4 and absorbance was measured at 450 nm.

Tau^FL [5] = target: T1, Tau^FL; assay: Fibrillization of Tau^FL monitored by ThT assay; assay type: biochemical; parameters: key to Inhibition of Tau^FL aggregation: (+/-) indicates comparably low inhibition of Tau^FL fibrillization; (-) indicates that the peptide showed no effect on fibril formation; conditions: L-peptides
Description: Tau aggregation assays were performed under reducing conditions. Before the addition of heparin and peptides, a final concentration of 1 mM dithiothreitol (DTT) was added to the Tau protein solution and heated at 95 °C for 10 min. […] Final concentration of 10 μM ThT was used for monitoring fibrillization. In case of the two hexapeptides, 5 μM PHF6 and 5 μM PHF6*, respectively, without addition of the aggregation inducer heparin (16000 Da) were used for monitoring the fibrillization process. The assays were performed with 50-μl sample volume per well in a 96-well half area microtiter plate (Greiner Bio-One GmbH, Frickenhausen, Germany). The fibrillization of Tau^FL was monitored by ThT, and the relative fluorescence intensity of ThT was read out at 440 excitation/521 emission nm in a BMG microplate reader (BMG Labtech, Ortenberg, Germany).

T1 sequence (P10636 1-441 isoform P10636-8): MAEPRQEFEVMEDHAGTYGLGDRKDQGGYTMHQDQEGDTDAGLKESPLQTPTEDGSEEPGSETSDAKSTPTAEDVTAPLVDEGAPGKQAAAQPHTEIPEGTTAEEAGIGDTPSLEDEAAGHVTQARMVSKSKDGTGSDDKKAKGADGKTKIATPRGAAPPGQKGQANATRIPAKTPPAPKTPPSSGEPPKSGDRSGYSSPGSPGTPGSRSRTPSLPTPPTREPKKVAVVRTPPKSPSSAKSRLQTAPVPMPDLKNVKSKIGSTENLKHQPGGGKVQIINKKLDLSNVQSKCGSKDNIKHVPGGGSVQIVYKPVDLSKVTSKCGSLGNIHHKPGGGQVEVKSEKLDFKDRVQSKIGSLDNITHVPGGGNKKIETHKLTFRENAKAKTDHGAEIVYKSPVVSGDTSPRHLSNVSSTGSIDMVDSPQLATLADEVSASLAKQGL

**Q.** With TLKIVW as the compound, how does the IC50 (Tau) read?
**A.** Its IC50 is 54.1 µM.

**Q.** For CC(C)C[C@@H](NC(=O)[C@@H](CCCCN)NC(=O)[C@@H](Cc1ccccc1)NC(=O)[C@H](NC(=O)[C@H](N)CO)C(C)C)C(=O)N[C@H](CO)C(=O)N[C@H](CC(C)C)C(=O)N[C@@H](C(=O)N[C@H](CC(=O)O)C(=O)N[C@H](C)C(=O)N[C@H](C)C(=O)N[C@H](CO)C(=O)O)[C@H](C)O [ISAD1] (H-[dS][dV][dF][dK][dL][dS][dL][dT][dD][dA][dA][dS]-OH), which Intracellular localisation [1] is on record?
**A.** The Intracellular localisation was “accumulated in the cytosol but were excluded from the nucleus”.

**Q.** And the Uptake by cells [1]?
**A.** The Uptake by cells was “almost all cells took up the D-peptides”.

**Q.** And the “Cytotoxicity, LDH release” value (N2a-Tau^RDΔK cells [2])?
**A.** Its value is “do not induce toxic effects”.

**Q.** And the “Cytotoxicity, MTT” value (N2a-Tau^RDΔK cells [3])?
**A.** The value was “do not induce toxic effects”.

**Q.** Which “Binding to Tau^FL in ELISA, in words” value (Tau^FL [4]) does the source give for “SASVTSKFDALL [ISAL1sam, scrambled L-amino acid variant of ISAL1, control peptide]” here?
**A.** The value was “no significant binding”.

**Q.** And the “Inhibition of Tau^FL fibrillization, in words” value (Tau^FL [5]; ThT assay)?
**A.** The value was “did not inhibit”.

**Q.** What about the “Inhibition of Tau^FL aggregation” value (Tau^FL [5]; ThT fibrillization assay) of the same compound?
**A.** The value was “-”.
